The values below come from patent US20120289523A1, “PYRROLO [3,2-E] [1,2,4] TRIAZOLO [1,5-A] PYRIMIDINES DERIVATIVES AS INHIBITORS OF MICROGLIA ACTIVATION” (BTG INTERNATIONAL LIMITED, priority 2009, published 2012).

Series [1] deals with Mouse BALB/c monocyte macrophages, J774.2. In words: Inhibition of β-amyloid induced activation: nitric oxide release (Griess assay). The following applies: 20 μM Aβ(1-42), 50 U/ml Interferon gamma, 24 hours. It counts as cell-based. Here is the method:
(§1) Mouse BALB/c monocyte macrophages, J774.2, {ECACC 85011428} were grown and sub-cultured in cell media (DMEM containing 10% FBS, 1% L-glutamine and 1% penicillin/streptomycin). The J774 cells were plated at 100,000 cells/well in 50 μl cell media on 96 well plates and placed in a 37° C., 5% CO2 incubator overnight prior to experiments.
(§2) The addition of Aβ(1-42) and compounds to the J774 cells was performed using a Biotek precision 2000 liquid handling instrument. 3 μl of compound in DMSO ranging from 8 μM to 6 mM were pipetted into a “daughter plate” containing 294 μl of cell media and mixed thoroughly. 3 μl of Aβ(1-42) in DMSO at 4 mM was then added to the “daughter plate” and mixed thoroughly. 50 μl was then removed from the “daughter plate” and added to the plated J774 cells. The final concentrations in the wells containing 100 μl cell media were 20 μM Aβ(1-42), the compounds ranged from ˜40 nM to 30 μM in 1% DMSO and also in the presence of 50 U/ml Interferon gamma. The plates were incubated for 24 hours in a 37° C., 5% CO2 incubator. After 24 hours incubation the media from the wells were collected and stored at −20° C. until required for testing.
The nitric oxide levels in the media were tested using the Griess assay (Promega G2930) using the manufacturer's instructions.
Background: The Griess reaction detects nitrite, a stable product of nitric oxide.

Another series addresses T1, CYP2C19 (Homo sapiens, UniProt P33261).
T1 construct: purchased Promega Corporation
In words: Inhibition of cytochrome P450 (P450-Glo) CYP2C19. It counts as biochemical. The following applies: human recombinant enzyme, read-out: CYP450 Inhibition (IC50 microM) 2C19. Here is the method: (§3) Tests were carried out using human recombinant enzymes CYP1A2, CYP2C9, CYP2C19, CYP2D6 and CYP3A4 and P450-Glo™ screening system (Promega Corporation). Briefly, using a white opaque 96-well plate, one-fourth of the final reaction volume of a 4×cytochrome P450 reaction mixture containing the requisite luminogenic substrate was combined with an equal volume of the test compound (0.03-30 μM) or known inhibitor control at a 4×concentration to give one-half of the final reaction volume. A 10-minute pre-incubation was performed. One-half the final volume of the 2×NADPH regeneration system was then added to initiate the CYP reactions, and bring all components to their 1×target concentrations. The plate is incubated at 37° C. for 30 minutes. The luciferin detection reagent was added which stops the CYP reaction and initiates luminescence. The signal was allowed to stabilize for 20 minutes at room temperature and then the luminescence was read. The net CYP-dependent luminescence was calculated by subtracting the average luminescence of the control reactions from the CYP-containing reactions. Changes from the average net signal of untreated CYP reactions for reactions with a test compound reflect the inhibition of CYP activity by this compound.

Series [2] can be described thus: Metabolism of compounds, human liver microsomes. It counts as in vitro ADME. The following applies: 1 μM compound, 0.3 mg/ml protein, 60 minutes at 37° C.; for half-life at 1 μM: human, pooled liver microsomes, read-out: Microsomes t1/2 (mins) Human. Here is the method:
(§4) These were measured by incubating 1 μM test compound with pooled liver microsomes (0.3 mg/ml) protein for 60 minutes at 37° C. Samples were analysed by HPLC-MS/MS (Kuhnz, W. and Gieschen, H. (1998) Drug Metab. Dispos., 26, 1120-1127).

In another series the target is T2, CYP2C9 (Homo sapiens, UniProt P11712).
T2 construct: purchased Promega Corporation
Put plainly: Inhibition of cytochrome P450 (P450-Glo) CYP2C9. It counts as biochemical. The following applies: human recombinant enzyme, read-out: CYP450 Inhibition (IC50 microM) 2C9. Here is the method:
as §3

The target of the next series is T3, CYP1A2 (Homo sapiens, UniProt P05177).
T3 construct: purchased Promega Corporation
T3 sequence (P05177 1-516): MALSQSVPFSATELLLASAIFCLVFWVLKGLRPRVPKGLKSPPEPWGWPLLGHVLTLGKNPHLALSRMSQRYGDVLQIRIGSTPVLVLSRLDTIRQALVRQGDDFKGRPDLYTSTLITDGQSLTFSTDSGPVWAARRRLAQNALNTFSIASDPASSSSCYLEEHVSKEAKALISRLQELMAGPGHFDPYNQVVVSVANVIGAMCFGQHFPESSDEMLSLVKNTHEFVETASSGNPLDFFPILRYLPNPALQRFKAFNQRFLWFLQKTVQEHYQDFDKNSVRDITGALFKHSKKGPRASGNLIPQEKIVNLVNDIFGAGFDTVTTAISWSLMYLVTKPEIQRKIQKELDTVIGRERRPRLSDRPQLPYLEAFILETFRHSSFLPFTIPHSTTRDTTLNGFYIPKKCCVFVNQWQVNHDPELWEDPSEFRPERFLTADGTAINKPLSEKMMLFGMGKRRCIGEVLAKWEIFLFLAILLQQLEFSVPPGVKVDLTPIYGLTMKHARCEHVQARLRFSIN
Put plainly: Inhibition of cytochrome P450 (P450-Glo) CYP1A2. The following applies: human recombinant enzyme, read-out: CYP450 Inhibition (IC50 microM) 1A2. It counts as biochemical. Here is the method:
as §3, with “Briefly, using a white opaque 96-well plate, one-fourth of the final reaction volume of a 4×cytochrome P450 reaction mixture containing the requisite luminogenic substrate was combined with an equal volume of the test compound (0.03-30 μM) or known inhibitor control at a 4×concentration to give one-half of the final reaction volume.” left out

Series [3] in a line: Metabolism of compounds, rat liver microsomes. It counts as in vitro ADME. The following applies: 1 μM compound, 0.3 mg/ml protein, 60 minutes at 37° C.; for half-life at 1 μM: rat, pooled liver microsomes, read-out: Microsomes t1/2 (mins) Rat. Here is the method:
as §4
Background: Liver microsomes are vesicles of endoplasmic reticulum, rich in cytochrome P450 enzymes.

The test system of series [4] is human colon adeno-carcinoma cell line Caco-2 or sub-clone TC7. In words: Cell permeability of compounds (Caco-2 or TC7 monolayers). It counts as in vitro ADME. The following applies: 10 μM; for Cell Perm A-B/B-A: ratio of Papp A-B to B-A, 60 minutes. Here is the method:
(§5) These were measured using the accepted in vitro intestinal epithelial model using either the human colon adeno-carcinoma cell line Caco-2 or a sub-clone of this cell line, TC7. The apparent permeability coefficient (Papp) was determined in the apical-to-basolateral (A-B) and the B-A directions across cell monolayers cultured on 96-well polycarbonate membrane filters. Compounds were tested at 10 μM with a final DMSO concentration of 1%. The assay plate was incubated for 60 minutes at 37° C. with gentle shaking. Samples were taken at time zero from the donor side and at the end of the incubation from both donor and receiver sides. Samples were analysed by HPLC-MS/MS. The Papp value (expressed as 10^−6 cm/sec) was then calculated based on the appearance rate of the compound in the receiver side (Gres, M. C. et al. (1998) Pharm. Res., 15, 726-733).
A general note: Passage across Caco-2 layers is used to estimate intestinal permeability.

Another series addresses T4, CYP2D6 (Homo sapiens, UniProt P10635).
T4 construct: purchased Promega Corporation
Put plainly: Inhibition of cytochrome P450 (P450-Glo) CYP2D6. The following applies: human recombinant enzyme, read-out: CYP450 Inhibition (IC50 microM) 2D6. It counts as biochemical. Here is the method: as §3

A further series deals with T5, CYP3A4 (Homo sapiens, UniProt P08684).
T5 construct: purchased Promega Corporation
In words: Inhibition of cytochrome P450 (P450-Glo) CYP3A4. It counts as biochemical. The following applies: human recombinant enzyme, read-out: CYP450 Inhibition (IC50 microM) 3A4. Here is the method: as §3

Series [5] has as its system Mouse BALB/c monocyte macrophages, J774.2. Put plainly: Inhibition of β-amyloid induced activation: TNF-alpha levels in media (ELISA or Meso Scale Discovery kit). The following applies: J774.2, 24 h, J774.2 cells, 20 μM Aβ(1-42), read-out: IC50 (μM) TNF-α. It counts as cell-based. Here is the method: as §1, §2
The TNF-alpha levels in the media were tested using a TNF-alpha ELISA (R&D Systems MTA00) or Meso Scale Discovery MS6000 Mouse Proinflammatory-7 kit, using the manufacturers instructions.

Series [6] in a line: Cell permeability of compounds (Caco-2 or TC7 monolayers). The following applies: human, Caco-2, apical-to-basolateral, 60 minutes at 37° C., read-out: Cell Perm A-B. It counts as in vitro ADME, human. Here is the method: as §5
[7] abbreviates: Table 1, identification of the active enantiomer, J774.2 cells, read-out: IC50 measured by inhibition of Nitric Oxide release.
[8] abbreviates: Table 2, J774.2 cells, read-out: IC50 (μM) NO.
The mark [9] stands for this setting: **Level of TNF for Aβ(1-42) alone: 13184 pg/mL.
The mark [10] stands for this setting: *Level of TNF for Aβ(1-42) alone: 9699 pg/mL.

Bounds are passed on as bounds.

T2 sequence (P11712 whole entry): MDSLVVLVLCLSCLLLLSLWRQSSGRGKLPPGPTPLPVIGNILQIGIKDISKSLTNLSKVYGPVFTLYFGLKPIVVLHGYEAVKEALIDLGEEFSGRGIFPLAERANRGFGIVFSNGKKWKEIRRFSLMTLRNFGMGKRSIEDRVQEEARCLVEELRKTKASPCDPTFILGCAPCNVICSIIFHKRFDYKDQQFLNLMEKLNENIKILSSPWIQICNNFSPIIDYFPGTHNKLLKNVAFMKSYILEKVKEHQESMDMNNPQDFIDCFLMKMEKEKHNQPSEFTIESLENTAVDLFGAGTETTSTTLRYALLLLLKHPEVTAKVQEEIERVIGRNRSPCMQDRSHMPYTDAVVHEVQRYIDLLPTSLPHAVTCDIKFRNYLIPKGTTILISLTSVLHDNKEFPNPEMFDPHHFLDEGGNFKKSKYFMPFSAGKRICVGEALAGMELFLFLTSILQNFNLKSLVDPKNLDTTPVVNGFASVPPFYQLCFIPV
T5 sequence (P08684 whole entry): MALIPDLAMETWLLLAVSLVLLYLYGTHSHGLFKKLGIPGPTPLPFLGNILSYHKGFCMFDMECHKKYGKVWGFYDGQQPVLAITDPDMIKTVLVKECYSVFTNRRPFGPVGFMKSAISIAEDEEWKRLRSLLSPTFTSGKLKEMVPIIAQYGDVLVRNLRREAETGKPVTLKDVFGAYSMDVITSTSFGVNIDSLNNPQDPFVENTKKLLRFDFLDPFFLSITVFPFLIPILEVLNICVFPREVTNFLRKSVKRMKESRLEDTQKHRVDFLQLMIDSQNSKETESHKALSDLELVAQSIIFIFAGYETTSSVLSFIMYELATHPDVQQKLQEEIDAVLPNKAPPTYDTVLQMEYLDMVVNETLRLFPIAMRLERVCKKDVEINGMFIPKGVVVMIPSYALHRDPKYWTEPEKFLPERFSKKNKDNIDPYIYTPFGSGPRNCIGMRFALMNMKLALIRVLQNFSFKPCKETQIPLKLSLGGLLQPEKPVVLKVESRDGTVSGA
T1 sequence (P33261 whole entry): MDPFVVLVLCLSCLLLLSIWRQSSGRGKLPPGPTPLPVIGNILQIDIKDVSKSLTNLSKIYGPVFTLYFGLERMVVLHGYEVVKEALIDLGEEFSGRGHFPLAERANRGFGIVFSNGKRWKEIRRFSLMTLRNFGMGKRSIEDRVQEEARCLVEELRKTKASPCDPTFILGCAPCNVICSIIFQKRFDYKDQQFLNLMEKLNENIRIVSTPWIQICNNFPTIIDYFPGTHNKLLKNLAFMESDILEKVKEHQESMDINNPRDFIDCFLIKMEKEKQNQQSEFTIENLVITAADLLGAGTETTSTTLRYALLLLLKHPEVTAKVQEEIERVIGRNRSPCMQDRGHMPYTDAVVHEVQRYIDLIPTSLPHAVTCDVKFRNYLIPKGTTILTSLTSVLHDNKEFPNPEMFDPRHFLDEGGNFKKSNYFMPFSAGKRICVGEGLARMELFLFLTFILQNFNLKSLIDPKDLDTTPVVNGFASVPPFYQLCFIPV
T4 sequence (P10635 whole entry): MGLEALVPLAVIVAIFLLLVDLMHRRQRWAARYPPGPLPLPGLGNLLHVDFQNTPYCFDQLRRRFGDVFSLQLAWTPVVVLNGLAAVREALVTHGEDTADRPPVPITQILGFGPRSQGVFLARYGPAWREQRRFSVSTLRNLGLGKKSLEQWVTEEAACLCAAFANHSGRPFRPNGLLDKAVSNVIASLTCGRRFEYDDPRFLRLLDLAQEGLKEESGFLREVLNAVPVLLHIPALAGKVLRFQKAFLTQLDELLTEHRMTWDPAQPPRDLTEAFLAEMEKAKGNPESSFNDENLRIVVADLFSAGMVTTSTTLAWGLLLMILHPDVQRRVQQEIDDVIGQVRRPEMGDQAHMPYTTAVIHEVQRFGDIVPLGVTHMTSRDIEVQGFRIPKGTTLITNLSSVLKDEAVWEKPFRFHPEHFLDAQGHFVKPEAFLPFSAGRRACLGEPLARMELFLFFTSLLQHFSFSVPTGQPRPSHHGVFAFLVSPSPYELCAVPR

In the case of `Cc1nc2ncnn2c2c1CCN2[C@H](C)c1ccccc1` [Compound 6, (R)-8-[1-(Phenyl)ethyl]-5-methyl-7,8-dihydro-6H-pyrrolo[3,2e][1,2,4]triazolo[1,5-a]pyrimidine], the IC50 (commonly the concentration at which inhibition is half-maximal) in [1] (setting [7]) was 30 µM.
With `Cc1nc2ncnn2c2c1CCN2[C@@H](C)c1ccc(F)cc1` [Compound 7, (S)-8-[1-(4-Fluorophenyl)ethyl]-5-methyl-7,8-dihydro-6H-pyrrolo [3,2e][1,2,4]triazolo[1,5-a]pyrimidine], the half-inhibitory concentration (IC50) worked out at 7 µM at CYP2C19; 27 µM at CYP2C9; 99 µM at CYP1A2; 15 µM on CYP2D6; 0.83 µM on CYP3A4. Besides, the “Microsomes t1/2 (mins) Human” value in series [2] is over 60 min. Further, the “Microsomes t1/2 (mins) Rat” value in [3] is 15 min. Moreover, in series [4] (apical-to-basolateral, 60 minutes at 37° C.), the “Cell Perm (Papp 10^−6 cm s^−1) A-B” value is 33 10^−6 cm s^−1. The “Cell Perm A-B/B-A” value in [4] is 0.85.
As to `Cc1nc2ncnn2c2c1CCN2[C@H](c1ccc(F)cc1)C(F)(F)F` [Compound 2, (R)-5-Methyl-8-[2,2,2-trifluoro-1-(4-fluorophenyl)ethyl]-7,8-dihydro-6H-pyrrolo[3,2e][1,2,4]triazolo[1,5-a]pyrimidine], the IC50 in series [1] (setting [8]) is 0.8 µM; at CYP2C19, over 20 µM; in [5] (setting [9]), 3.2 µM; in series [5] (setting [10]), 0.91 µM; on CYP2C9, over 20 µM; on CYP1A2 it was over 20 µM. Also, the IC50 is over 20 µM at CYP2D6 and 19 µM at CYP3A4. Further, the figures for the half-life at 1 μM in series [2] and in series [3] were over 60 min and 60 min, respectively. Also, the “Cell Perm A-B/B-A” value in [4] is 0.37. Moreover, the Papp A→B at 60 min, 10 μM in series [6] was found to be 72 ×10⁻⁶ cm/s.
With `Cc1nc2ncnn2c2c1CCN2[C@H](c1ccccc1)C(F)(F)F` [Compound 1, (R)-5-Methyl-8-[2,2,2-trifluoro-1-phenylethyl]-7,8-dihydro-6H-pyrrolo[3,2e][1,2,4]-triazolo[1,5-a]pyrimidine], the melting point (usually the temperature of the solid-liquid transition) lay within 153 to 155 °C. The IC50 in series [1] (setting [8]) stood at 1.1 µM. The IC50 at CYP2C19 is over 10 µM. For the same molecule, the IC50 in series [5] (setting [10]) is 1.44 µM. The half-life at 1 μM in series [2] is over 60 min. Moreover, the half-inhibitory concentration (IC50) at CYP2C9 worked out at 14 µM. The concentration for half-maximal inhibition (IC50) on CYP1A2 was over 20 µM. The half-life at 1 μM in [3] was determined as 35 min. Further, the “Cell Perm A-B/B-A” value in [4] worked out at 0.55. The Papp A→B at 60 min, 10 μM in [6] amounted to 35 ×10⁻⁶ cm/s. Besides, the IC50 at CYP2D6 is over 20 µM. For the same molecule, on CYP3A4, the IC50 amounted to 8 µM.
For the molecule `Cc1nc2ncnn2c2c1CCN2C(C)c1ccccc1` (single isomer, unassigned) [Compound 4], the IC50 in series [1] (setting [7]) worked out at 3 µM; in series [1] (setting [8]) it was 3 µM; in series [5] (setting [9]), 5.5 µM.
Turning to `Cc1nc2ncnn2c2c1CCN2[C@@H](C)c1ccccc1` [Compound 5, (S)-8-[1-(Phenyl)ethyl]-5-methyl-7,8-dihydro-6H-pyrrolo[3,2e][1,2,4]triazolo[1,5-a]pyrimidine], the IC50 in series [1] (setting [7]) was 1.5 µM; in series [1] (setting [8]) it was 1.5 µM; on CYP2C19, 13 µM; in series [5] (setting [9]) it was 2.3 µM; at CYP2C9, over 100 µM; on CYP1A2, over 100 µM. Moreover, the results for the IC50 on CYP2D6 and at CYP3A4 were 21 µM and 0.53 µM, respectively. Besides, the half-life at 1 μM in series [2] is over 60 min; in [3], 15 min. Besides, the “Cell Perm A-B/B-A” value in [4] was found to be 0.85. In series [6], the Papp A→B at 60 min, 10 μM came to 35 ×10⁻⁶ cm/s.
